Data reported in patent US10053498B2, “Compositions comprising serum albumin and p53 peptides fusion proteins” (University of the Sciences of Philadelphia, priority 2014, dated 2018).

How the values were obtained:
[1] = test system: Hela cells; assay: CyQuant cytotoxicity assay in Hela cells; format: cell-based; details: 24 hrs, relative to rHSA-treated cells; nutlin 10 μM, ABT-263 2.5 μM (FIG. 13)
Experimental: (§2) Cytotoxicities were measured by CyQuant Assay and normalized according to rHSA-treated cells.

[2] = test system: MDA-MB-231 cells; assay: CyQuant cytotoxicity assay in MDA-MB-231 cells; format: cell-based; details: 24 hrs, relative to rHSA-treated cells; nutlin 10 μM, ABT-263 2.5 μM (FIG. 13)
Experimental: as §2

[3] = plasma protein; cited from earlier work
[4] = test system: p53; assay: Western blot and densitometry of p53 protein in SJSA-1 cells; format: cell-based; details: 10 μM, 24 hrs, densitometry
Experimental: (§1) SJSA-1 cells were lysed in buffer containing 20 mM Tris-HCl, 50 mM NaCl, 0.05% Triton X-100, and protease inhibitor cocktail. […] Mixtures were then allowed to incubate for 1 hour at RT.

[5] = test system: SJSA-1 cells; assay: CyQuant cytotoxicity assay in SJSA-1 cells; format: cell-based; details: 24 hrs, relative to rHSA-treated cells; nutlin 10 μM (FIG. 13)
Experimental: Osteosarcoma SJSA-1 cells (ATCC) were grown in RPMI media containing 10% FBS. Cytotoxicity assays were performed using SJSA-1 cells plated in 24- or 96-well plates at 20,000 or 5,000 cells per well, respectively. Cells were allowed to attach overnight. All treatments were added on day 2 in RPMI media containing 1% FBS plus the equivalent amounts of 1×PBS buffer. Unless otherwise indicated, cells were exposed to treatment media for 24 hours, at which time cytotoxicity was measured using the fluorometric CyQuant assay (Invitrogen, C35006) or the fluorometric Homogeneous Caspase assay (Roche, 03005372001), according to the manufacturer's instructions, for detection of apoptosis. All results were plotted relative to rHSA- or where indicated, rHSA/FA-FITC-treated cells.

[6] = test system: MDM2; assay: Western blot and densitometry of MDM2 protein in SJSA-1 cells; format: cell-based; details: 10 μM, 24 hrs, densitometry
Chain of MDM2 (Q00987 whole entry): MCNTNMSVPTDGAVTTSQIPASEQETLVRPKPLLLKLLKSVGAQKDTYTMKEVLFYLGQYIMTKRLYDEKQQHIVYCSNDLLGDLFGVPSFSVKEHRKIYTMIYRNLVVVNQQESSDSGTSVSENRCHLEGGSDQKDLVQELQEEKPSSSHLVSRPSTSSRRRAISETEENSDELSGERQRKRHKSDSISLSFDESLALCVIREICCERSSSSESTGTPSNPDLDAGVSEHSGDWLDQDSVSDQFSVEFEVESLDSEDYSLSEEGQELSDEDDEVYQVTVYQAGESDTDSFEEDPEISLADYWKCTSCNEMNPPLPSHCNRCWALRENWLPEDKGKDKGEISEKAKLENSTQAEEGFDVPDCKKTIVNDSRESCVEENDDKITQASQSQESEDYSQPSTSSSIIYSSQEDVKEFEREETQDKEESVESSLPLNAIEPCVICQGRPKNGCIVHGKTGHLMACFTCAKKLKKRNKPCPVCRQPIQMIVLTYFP
Experimental: as §1

[7] = test system: SJSA-1 cells; assay: Cell death on co-treatment with MTX in SJSA-1 cells; format: cell-based; details: co-treatment with MTX versus single agents (FIG. 14A)
Experimental: As shown above, HSA-PMI may induce apoptosis by disrupting MDM2/MDMX-p53 interaction and/or by inducing the release of BAK from MCL-1 or BCL-Xl. […] To test this hypothesis, SJSA cells were treated with MTX alone, HSA-PMI/nutlin alone, or MTX and HSA-PMI/nutlin.

Question: Which “cell death in Hela cells (p53 under-expressing)” value [1] does the source give for `CC1(C)CCC(c2ccc(Cl)cc2)=C(CN2CCN(c3ccc(C(=O)NS(=O)(=O)c4ccc(N[C@H](CCN5CCOCC5)CSc5ccccc5)c(S(=O)(=O)C(F)(F)F)c4)cc3)CC2)C1` [ABT-263] here?
Answer: killed

Question: And the “cell death in MDA-MB-231 cells (p53 negative)” value [2]?
Answer: killed

Question: For “HSA: human serum albumin, the most abundant plasma protein”, which average half-life [3] is on record?
Answer: 19 days

Question: For nutlin, which “increase in p53 protein” value [4] is on record?
Answer: 11.5 fold

Question: And the “cell death in SJSA-1 cells (p53 positive)” value [5]?
Answer: killed

Question: And the “change in MDM2 protein expression” value [6]?
Answer: 5 fold

Question: And the “cell death in combination with MTX” value [7]?
Answer: not additive
